In the SangsterLogP compilation:

Assay: method code SF-AS, from DOI: 10.1002/(sici)1521-3897(199907)341:5<499::aid-prac499>3.0.co;2-7
Conditions: pH 7.4

| logD | SMILES |
| --- | --- |
| 0.87 | Nc1nnnn1-c1ccccc1Cl |
| 0.67 | Nc1nnnn1-c1cccc([N+](=O)[O-])c1 |
| 1.61 | Nc1nnnn1-c1cc(Cl)ccc1Cl |
| 1.72 | Nc1nnnn1-c1cccc2ccccc12 |
| 0.85 | COc1ccc(-n2nnnc2N)cc1 |
| 1.64 | Nc1nnnn1-c1ccc(Br)cc1 |
| 0.77 | Nc1nnnn1-c1ccc([N+](=O)[O-])cc1 |
| 1.32 | CCOc1ccc(-n2nnnc2N)cc1 |
| 2.3 | Nc1nnnn1-c1cc(Cl)c(Cl)cc1Cl |
| 1.44 | Nc1nnnn1-c1cccc(Cl)c1 |
| 0.93 | Cc1ccccc1-n1nnnc1N |
| 2.08 | Nc1nnnn1-c1ccc2ccccc2c1 |
| 0.69 | Nc1nnnn1-c1ccccc1 |
| 2.06 | Nc1nnnn1-c1ccc(Cl)c(Cl)c1 |
| 1.41 | Nc1nnnn1-c1ccc(Cl)cc1 |
| 1.63 | Nc1nnnn1-c1ccc(Cl)cc1Cl |
| 0.56 | COc1ccccc1-n1nnnc1N |
| 1.56 | Nc1nnnn1-c1c(Cl)cccc1Cl |
| 1.46 | Cc1ccc(C)c(-n2nnnc2N)c1 |
| 1.89 | Cc1ccc(-n2nnnc2N)cc1Cl |
| 0.56 | Nc1nnnn1-c1cccc(O)c1 |
| 0.75 | Nc1nnnn1-c1ccc(F)cc1 |
| 0.33 | Nc1nnnn1-c1ccc(O)cc1 |
| 1.24 | Cc1cccc(-n2nnnc2N)c1 |
